Source: patent US20160324863A1, “TARGETED CANCER TREATMENT BY HSP90 INHIBITORS GANETESPIB AND NVP-AUY922” (SYNTA PHARMACEUTICALS CORP., priority 2014, published 2016)
Where two headings read alike, the source gives them in different places.

What was measured:
[1] = tested on: SW780 bladder cancer cell line; assay: CellTiter-Glo viability assay, SW780; format: cell-based; conditions: Homo sapiens, FGFR3 status FGFR3-BAIAP2L1, 72 hours, read-out: Ganetespib IC50
Description: (§1) Cellular viability was assessed using the CellTiter-Glo Luminescent Cell Viability Assay (Promega) according to manufacturer protocols. Bladder cancer cell lines were seeded into 96-well plates based on optimal growth rates determined empirically for each line. Twenty-four hours after plating, cells were dosed with graded concentrations of ganetespib for 72 hours. CellTiter-Glo was added (50% v/v) to the cells, and the plates incubated for 10 minutes prior to luminescent detection in a SpectraMax Plus 384 microplate reader (Molecular Devices). Data were normalized to percent of control and IC50 values used to determine the sensitivity of each line. For the comparative analyses with ganetespib and BGJ398, RT112 cells were treated with graded concentrations of each compound for 72 hours and cell viability measured as above. For the evaluation of apoptotic induction, caspase activity was assessed using the Caspase-Glo 3/7 assay (Promega) according to manufacturer protocols. Twenty-four hours after plating, RT112 cells were treated with graded concentrations of ganetespib for 24 hours. Caspase-Glo was added to cells (50% v/v) and the plates incubated for 1 hour prior to luminescent detection.

HT29 cells = assay: Cell viability assay, HT29 colorectal cancer cells; conditions: Homo sapiens, HT-29, read-out: IC50 based on cell viability
Description: 24 hours after transfection, […] were seeded in triplicate in 96-well plates one day before treatment. Cells were treated with inhibitors and drugs for 48 hours and subjected to the CellTiterGlo Luminescent Cell Viability assay (Promega, Madison Wis., USA).

[2] = tested on: 647-V bladder cancer cell line; assay: CellTiter-Glo viability assay, 647-V; format: cell-based; conditions: Homo sapiens, FGFR3 status WT, 72 hours, read-out: Ganetespib IC50
Description: as §1

[3] = tested on: FGFR3-TAAC3 in RT112 cells; assay: Western blotting of FGFR3-TAAC3 and signaling proteins in RT112 cells; format: cell-based; conditions: 200 nM ganetespib
Description: Following in vitro assays, tumor cells were disrupted in lysis buffer on ice for 10 minutes. Lysates were clarified by centrifugation and equal amounts of proteins resolved by SDS-PAGE before transfer to nitrocellulose membranes (Bio-Rad). Membranes were blocked with StartingBlock T20 blocking buffer (Thermo Scientific) and immunoblotted with the indicated antibodies. Antibody-antigen complexes were visualized using an Odyssey system (LI-COR).

[4] = tested on: RT112 bladder cancer cell line; assay: CellTiter-Glo viability assay, RT112; format: cell-based; conditions: Homo sapiens
Description: as §1

[5] = tested on: LB831-BLC bladder cancer cell line; assay: CellTiter-Glo viability assay, LB831-BLC; format: cell-based; conditions: FGFR3 status WT, 72 hours, read-out: Ganetespib IC50
Description: as §1

[6] = tested on: T24 bladder cancer cell line; assay: CellTiter-Glo viability assay, T24; format: cell-based; conditions: FGFR3 status WT, 72 hours, read-out: Ganetespib IC50
Description: as §1

[7] = tested on: SW-1710 bladder cancer cell line; assay: CellTiter-Glo viability assay, SW-1710; format: cell-based; conditions: Homo sapiens, SW1710, FGFR3 status WT, 72 hours, read-out: Ganetespib IC50
Description: as §1

SW780 cells = assay: LC-MS/MS bioanalysis of ganetespib and glucuronidated metabolites in SW780 cells; format: in vitro ADME; conditions: 1 μM ganetespib, by 24 hours
Description: In the first set of experiments, RT112 and SW780 cells were treated with graded concentrations of ganetespib or 17-DMAG (10-1000 nM) for 1 and 24 hours. Cell lysates were prepared for measurement of intracellular concentrations of the respective HSP90 inhibitors. RT112 and SW780 cells were also treated with 1 μM ganetespib for 15 minutes, 1, 4, 8 and 24 hours. At each time point cell lysates were prepared and media was collected for analysis of intracellular and secreted concentrations of ganetespib and its glucuronidated metabolites. Bioanalysis was performed on equal protein concentrations from cell lysates or equal volumes of media. All samples were ultimately extracted by protein precipitation and analyzed by LC-MS/MS using an Agilent 1100 HPLC interfaced to an API 4000 tandem mass spectrometer (Applied Biosystems). A Phenomenex Kinetex 2.6 μm C18 (30×2.1 mm) column was used with a run time of 3.5 min per sample.

[8] = tested on: 97-7 bladder cancer cell line; assay: CellTiter-Glo viability assay, 97-7; format: cell-based; conditions: FGFR3 status S249C, 72 hours, read-out: Ganetespib IC50
Description: as §1

SW1463 cells = assay: LC-MS/MS bioanalysis of ganetespib in SW1463 cells; format: in vitro ADME, human; conditions: 1 μM ganetespib, 8 hr
Description: Colon cancer cells were treated with 1 μM ganetespib for 5, 15, 30, 60 or 480 minutes. At each time point, media was collected and cell lysates were generated for subsequent bioanalysis of secreted and intracellular concentrations of ganetespib and its glucuronides. Equal protein concentrations from cell lysates or equal volumes of media were used for the bioanalysis. Samples were extracted by protein precipitation and analyzed by LC-MS/MS using an Agilent 1100 HPLC interfaced to an API 4000 tandem mass spectrometer (Applied Biosystems). A Phenomenex Kinetex 2.6 μm C18 (30×2.1 mm) column was used with a run time of 3.5 min per sample.

[9] = tested on: 639-V bladder cancer cell line; assay: CellTiter-Glo viability assay, 639-V; format: cell-based; conditions: Homo sapiens, FGFR3 status R248C, 72 hours, read-out: Ganetespib IC50
Description: as §1

[10] = tested on: HT-1376 bladder cancer cell line; assay: CellTiter-Glo viability assay, HT-1376; format: cell-based; conditions: Homo sapiens, FGFR3 status WT, 72 hours, read-out: Ganetespib IC50
Description: as §1

CC(C)c1cc(-c2n[nH]c(=O)n2-c2ccc3c(ccn3C)c2)c(O)cc1O [ganetespib]
IC50 [1]: 3450 nM | IC50 (HT29 cells): 2000 nM | IC50 [2]: 27 nM | time to destabilization of the FGFR3-TAAC3 fusion and alterations in downstream signaling [3]: ≤ 4 h | IC50 ([4]; RT-112, 72-hour combination viability assay, single inhibitor, read-out: approximate IC50 concentrations): ~9.6 nM | IC50 ([4]; RT-112, FGFR3 status FGFR3-TACC3, 72 hours, read-out: Ganetespib IC50): 9 nM | IC50 [5]: 34 nM | IC50 [6]: 7 nM | IC50 [7]: 6 nM | intracellular ganetespib concentrations (SW780 cells): undetectable | IC50 [8]: 38 nM | ganetespib present (SW1463 cells): ~190 nM | IC50 [9]: 10 nM | IC50 [10]: 21 nM
